From ChEMBL document CHEMBL1145087 (J Med Chem, 2003)

Key:
Progesterone receptor [1] = target: T1, Progesterone receptor (Homo sapiens, UniProt P06401); test: Agonistic activity against human progesterone receptor in T47D breast cancer cells; assay type: functional, cell-based
T1 sequence (P06401 whole entry): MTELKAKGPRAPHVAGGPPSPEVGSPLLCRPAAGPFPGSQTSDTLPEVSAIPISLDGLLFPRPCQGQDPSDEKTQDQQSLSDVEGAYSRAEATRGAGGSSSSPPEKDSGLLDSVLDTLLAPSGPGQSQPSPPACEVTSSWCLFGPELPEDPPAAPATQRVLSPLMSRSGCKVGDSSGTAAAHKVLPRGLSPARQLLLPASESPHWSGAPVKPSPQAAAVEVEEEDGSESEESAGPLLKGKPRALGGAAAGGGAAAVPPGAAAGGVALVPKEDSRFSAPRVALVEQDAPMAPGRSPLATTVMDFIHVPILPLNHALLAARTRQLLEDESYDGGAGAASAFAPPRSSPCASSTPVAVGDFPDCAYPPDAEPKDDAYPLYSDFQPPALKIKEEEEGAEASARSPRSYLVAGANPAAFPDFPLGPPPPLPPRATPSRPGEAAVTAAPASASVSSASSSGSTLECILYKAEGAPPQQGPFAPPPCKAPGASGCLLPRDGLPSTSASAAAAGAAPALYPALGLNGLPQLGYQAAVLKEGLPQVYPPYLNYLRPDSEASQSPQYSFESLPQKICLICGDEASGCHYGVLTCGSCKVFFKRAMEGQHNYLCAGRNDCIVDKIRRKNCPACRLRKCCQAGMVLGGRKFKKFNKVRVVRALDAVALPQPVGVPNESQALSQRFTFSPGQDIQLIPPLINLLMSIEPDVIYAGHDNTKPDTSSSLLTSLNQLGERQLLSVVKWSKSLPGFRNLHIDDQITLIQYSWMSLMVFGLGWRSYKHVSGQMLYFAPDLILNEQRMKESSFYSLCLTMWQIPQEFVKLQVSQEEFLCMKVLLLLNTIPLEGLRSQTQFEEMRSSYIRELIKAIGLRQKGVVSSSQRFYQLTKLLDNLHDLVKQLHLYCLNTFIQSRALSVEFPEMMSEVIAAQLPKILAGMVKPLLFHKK

[2] = target: T2, Progesterone receptor (Homo sapiens) (UniProt P06401); test: Percent agonistic effect towards human progesterone receptor in T47D breast cancer cells; assay type: functional, cell-based
T2 sequence (whole entry): T1 sequence (P06401 whole entry)

Progesterone receptor [3] = target: T1, Progesterone receptor; test: Agonistic activity against human progesterone receptor in CV-1 cells; assay type: functional, cell-based
[4] = target: T2, Progesterone receptor (Homo sapiens); test: Percent agonistic effect towards human progesterone receptor in CV-1 cells; assay type: functional, cell-based
Progesterone receptor [5] = target: T1, Progesterone receptor; test: Binding affinity towards human progesterone receptor A isoform using progesterone as radioligand
Glucocorticoid receptor [6] = target: T3, Glucocorticoid receptor (Homo sapiens, UniProt P04150); test: Inhibition of Dexamethasone binding to human glucocorticoid receptor expressed in baculovirus […] cells
T3 sequence (P04150 whole entry): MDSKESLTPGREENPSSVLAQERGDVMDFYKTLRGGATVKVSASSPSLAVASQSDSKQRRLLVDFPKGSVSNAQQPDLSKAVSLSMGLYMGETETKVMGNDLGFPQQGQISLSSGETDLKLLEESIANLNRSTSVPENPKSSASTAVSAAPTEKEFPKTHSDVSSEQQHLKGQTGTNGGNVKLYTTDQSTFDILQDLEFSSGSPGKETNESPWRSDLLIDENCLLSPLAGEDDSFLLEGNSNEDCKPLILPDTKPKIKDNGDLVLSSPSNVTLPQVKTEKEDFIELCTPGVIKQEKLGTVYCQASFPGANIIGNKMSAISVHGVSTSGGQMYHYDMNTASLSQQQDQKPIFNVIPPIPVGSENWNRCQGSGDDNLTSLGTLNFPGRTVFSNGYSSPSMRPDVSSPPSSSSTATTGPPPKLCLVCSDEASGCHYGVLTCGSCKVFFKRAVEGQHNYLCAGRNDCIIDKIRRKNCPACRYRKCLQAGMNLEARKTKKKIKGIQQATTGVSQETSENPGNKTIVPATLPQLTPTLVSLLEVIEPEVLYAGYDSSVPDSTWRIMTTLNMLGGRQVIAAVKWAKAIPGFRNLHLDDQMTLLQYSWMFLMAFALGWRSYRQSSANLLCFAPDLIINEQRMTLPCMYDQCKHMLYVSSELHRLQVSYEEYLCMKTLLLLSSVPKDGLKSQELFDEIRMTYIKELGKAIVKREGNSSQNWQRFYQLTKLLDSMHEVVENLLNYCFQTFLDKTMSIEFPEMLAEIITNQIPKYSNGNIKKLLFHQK

Homo sapiens [7] = species: Homo sapiens; test: Relative potency for human androgen and progesterone receptors
Homo sapiens [8] = species: Homo sapiens; test: Relative potency for human estrogen and progesterone receptors
Homo sapiens [9] = species: Homo sapiens; test: Relative potency for human glucocorticoid and progesterone receptors
Homo sapiens [10] = species: Homo sapiens; test: Relative potency for human mineralocorticoid and progesterone receptors
Androgen receptor [11] = target: T4, Androgen receptor (Homo sapiens, UniProt P10275)
T4 sequence (P10275 whole entry): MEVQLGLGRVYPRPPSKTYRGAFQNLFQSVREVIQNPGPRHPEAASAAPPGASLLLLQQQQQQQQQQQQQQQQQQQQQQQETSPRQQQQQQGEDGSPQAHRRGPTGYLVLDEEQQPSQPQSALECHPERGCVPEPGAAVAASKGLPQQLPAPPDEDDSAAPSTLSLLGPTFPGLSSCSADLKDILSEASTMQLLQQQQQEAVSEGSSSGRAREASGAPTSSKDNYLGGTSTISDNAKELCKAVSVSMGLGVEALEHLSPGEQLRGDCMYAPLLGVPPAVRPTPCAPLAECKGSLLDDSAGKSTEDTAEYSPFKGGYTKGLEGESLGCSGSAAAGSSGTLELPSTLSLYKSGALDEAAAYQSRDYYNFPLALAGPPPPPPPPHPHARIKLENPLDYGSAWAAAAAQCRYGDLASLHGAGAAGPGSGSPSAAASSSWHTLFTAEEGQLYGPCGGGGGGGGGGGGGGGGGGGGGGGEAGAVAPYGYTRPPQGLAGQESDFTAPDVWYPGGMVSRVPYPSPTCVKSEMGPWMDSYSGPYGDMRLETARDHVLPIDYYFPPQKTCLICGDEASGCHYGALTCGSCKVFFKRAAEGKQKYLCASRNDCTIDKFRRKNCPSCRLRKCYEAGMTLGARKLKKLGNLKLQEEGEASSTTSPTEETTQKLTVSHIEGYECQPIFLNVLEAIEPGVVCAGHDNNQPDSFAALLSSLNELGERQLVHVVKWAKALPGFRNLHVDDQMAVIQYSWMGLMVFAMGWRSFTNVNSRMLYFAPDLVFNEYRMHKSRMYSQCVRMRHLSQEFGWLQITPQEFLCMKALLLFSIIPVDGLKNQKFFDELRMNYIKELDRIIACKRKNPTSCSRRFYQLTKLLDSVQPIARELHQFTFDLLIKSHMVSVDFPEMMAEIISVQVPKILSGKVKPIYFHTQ
Description: Inhibition of human androgen receptor at 10e-12 to 10e-5 M

Glucocorticoid receptor [12] = target: T3, Glucocorticoid receptor
Description: Inhibition of human glucocorticoid receptor at 10e-12 to 10e-5 M

Androgen receptor [13] = target: T4, Androgen receptor; test: biochemical
Description: Inhibition of DHT binding to human androgen receptor expressed in baculovirus SF-12 cells

| Structure (SMILES) | EC50 (Progesterone receptor [1]) | Efficacy [2] | EC50 (Progesterone receptor [3]) | Efficacy [4] | Ki (Progesterone receptor [5]) | Ki (Glucocorticoid receptor [6]) | Ratio (Homo sapiens [7]) | Ratio (Homo sapiens [8]) | Ratio (Homo sapiens [9]) | Ratio (Homo sapiens [10]) | IC50 (Androgen receptor [11]) | IC50 (Glucocorticoid receptor [12]) | Ki (Androgen receptor [13]) |
| --- | --- | --- | --- | --- | --- | --- | --- | --- | --- | --- | --- | --- | --- |
| CC1=CC(C)(C)Nc2ccc3c(c21)/C(=C/c1ccccc1C)Oc1ccccc1-3 | 28 nM | 45% | – | – | – | – | – | – | – | – | – | – | – |
| CC1=CC(C)(C)Nc2ccc3c(c21)/C(=C/c1ccccc1Br)Oc1ccc(F)cc1-3 | 50 nM | 37% | 9 nM | 147% | 16.4 nM | – | – | – | – | – | – | – | – |
| CC1=CC(C)(C)Nc2ccc3c(c21)/C(=C/c1ccccc1C=O)Oc1ccc(F)cc1-3 | 48 nM | 72% | 11 nM | 107% | 2.6 nM | – | – | – | – | – | – | – | – |
| CC1=CC(C)(C)Nc2ccc3c(c21)/C(=C/c1cccc(F)c1)Oc1c(F)cccc1-3 | 18 nM | 51% | 2.7 nM | 170% | 5.5 nM | – | – | – | – | – | – | – | – |
| CC1=CC(C)(C)Nc2ccc3c(c21)/C(=C/c1ccccc1C)Oc1ccc(F)cc1-3 | 19 nM | 49% | 3.6 nM | 178% | 0.55 nM | 236 nM | 228 | > 1000 | 181 | > 1000 | 820 nM | 650 nM | > 1000 nM |
| CC1=CC(C)(C)Nc2ccc3c(c21)/C(=C/c1ccc(F)cc1)Oc1c(F)cccc1-3 | 8 nM | 36% | 4 nM | 175% | 0.71 nM | – | – | – | – | – | – | – | – |
| CC1=CC(C)(C)Nc2ccc3c(c21)/C(=C/c1ccccn1)Oc1ccc(F)cc1-3 | 44 nM | 40% | 15 nM | 50% | 9.2 nM | – | – | – | – | – | – | – | – |
| CC1=CC(C)(C)Nc2ccc3c(c21)/C(=C/c1ccccc1F)Oc1ccc(F)cc1-3 | 29 nM | 47% | – | 190% | 0.62 nM | – | – | – | – | – | – | – | – |
| CC1=CC(C)(C)Nc2ccc3c(c21)/C(=C/c1ncccc1C)Oc1ccc(F)cc1-3 | 12 nM | 49% | 4.5 nM | 125% | 0.42 nM | 874 nM | – | > 1000 | – | > 1000 | 203 nM | 188 nM | > 1000 nM |
| CC1=CC(C)(C)Nc2ccc3c(c21)/C(=C/c1ccccc1C(C)C)Oc1ccc(F)cc1-3 | 54 nM | 43% | 4 nM | 156% | 1.9 nM | – | – | – | – | – | – | – | – |
| CC1=CC(C)(C)Nc2ccc3c(c21)/C(=C/c1ccccc1C#N)Oc1ccc(F)cc1-3 | 97 nM | 62% | 11 nM | 78% | 11.4 nM | – | – | – | – | – | – | – | – |
| CC1=CC(C)(C)Nc2ccc3c(c21)/C(=C/c1ccccc1C(F)(F)F)Oc1ccc(F)cc1-3 | 161 nM | 56% | 14 nM | 127% | 45.5 nM | – | – | – | – | – | – | – | – |
| CC1=CC(C)(C)Nc2ccc3c(c21)/C(=C/c1ccccc1Cl)Oc1ccc(F)cc1-3 | – | – | – | 146% | 22.4 nM | – | – | – | – | – | – | – | – |
| CC1=CC(C)(C)Nc2ccc3c(c21)/C(=C/c1ccncc1)Oc1ccc(F)cc1-3 | 4.9 nM | 49% | 5.8 nM | 105% | 1.5 nM | – | – | – | – | – | – | – | – |
| CCCc1ccccc1/C=C1\Oc2ccc(F)cc2-c2ccc3c(c21)C(C)=CC(C)(C)N3 | 59 nM | 46% | 4.5 nM | 123% | 1.6 nM | – | – | – | – | – | – | – | – |
| CC1=CC(C)(C)Nc2ccc3c(c21)/C(=C/c1ccccc1OC(F)(F)F)Oc1ccc(F)cc1-3 | 190 nM | 56% | 11 nM | 136% | 6.4 nM | – | – | – | – | – | – | – | – |
| CC1=CC(C)(C)Nc2ccc3c(c21)/C(=C/c1ccccc1)Oc1ccc(F)cc1-3 | 28 nM | 55% | – | 176% | 0.62 nM | 207 nM | 121 | > 1000 | 387 | > 1000 | 640 nM | 2050 nM | > 1000 nM |
| CSc1ccccc1/C=C1\Oc2ccc(F)cc2-c2ccc3c(c21)C(C)=CC(C)(C)N3 | 41 nM | 53% | 6.2 nM | 132% | 0.59 nM | 386 nM | > 1000 | > 1000 | 139 | > 1000 | – | 860 nM | > 1000 nM |
